In ChEMBL document CHEMBL4406802, “Human disorders associated with inflammation and the evolving role of natural products to overcome” (Eur J Med Chem, 2019):
Values after ≈ are worked out from the molar mass of the structure shown.

test system: RAW264.7; experiment: Antiinflammatory activity in mouse RAW264.7 cells assessed as inhibition of LPS-induced nitric oxide production; format: functional, cell-based; details: not given

Row | Structure (SMILES) | IC50
1 | CC[C@H](CC[C@@H](C)[C@H]1CC[C@H]2[C@@H]3CCC4=CC(=O)CC[C@]4(C)[C@H]3CC[C@]12C)C(C)C | 15.9 µM
2 | C=C(C)C(=O)Cc1c(-c2ccc(O)cc2O)oc2c(CC=C(C)C)c(O)cc(O)c2c1=O | 4.3 µg/mL
3 | COc1cc(/C=C/C(=O)O[C@H]2CC[C@]3(C)[C@H]4CC=C5[C@@H]6CC(C)(C)CC[C@]6(C(=O)O)CC[C@@]5(C)[C@]4(C)CC[C@H]3C2(C)C)ccc1O | 54.1 µM
4 | C=C(C)[C@@H]1CC[C@]2(C(=O)O)CC[C@]3(C)[C@H](CC[C@@H]4[C@@]5(C)CC[C@H](O)C(C)(C)[C@@H]5CC[C@]43C)[C@@H]12 [BETULINIC ACID] | 42.5 µM
5 | O=C1CC(c2ccc(O)cc2O)Oc2cc(O)ccc21 (centres undefined) | 10.3 µg/mL
6 | CC[C@H](CC[C@@H](C)[C@H]1CC[C@H]2[C@@H]3C[C@H](O)C4=CC(=O)CC[C@]4(C)[C@H]3CC[C@]12C)C(C)C | 86.7 µM
7 | C=C(C)C(O)Cc1c(-c2ccc(O)cc2O)oc2c(CC=C(C)C)c(O)cc(O)c2c1=O (centres undefined) | 7.3 µg/mL
8 | CC(C)[C@@H](C)/C=C/[C@@H](C)[C@H]1CC[C@@H]2[C@]1(C)CC[C@H]1[C@]23C=C[C@]2(C[C@@H](O)CC[C@]12C)OO3 [ERGOSTEROL PEROXIDE] | 28.7 µM
9 | CC(C)=CCC/C(C)=C/Cc1c(O)cc2oc(-c3ccc(O)cc3)cc(=O)c2c1O | 4.1 µg/mL
10 | CC(C)=CCc1c(-c2ccc(O)cc2O)oc2c(CC=C(C)C)c(O)cc(O)c2c1=O [KUWANON C] | 9.6 µg/mL
11 | CC(C)=CCC1C(=O)c2c(O)cc3c(c2OC1c1ccc(O)cc1O)C=CC(C)(CO)O3 (centres undefined) | 5.2 µg/mL
12 | CC(C)=CCc1c(-c2ccc(O)cc2O)oc2cc3c(c(O)c2c1=O)C=CC(C)(C)O3 [CUDRAFLAVONE B] | 7.4 µg/mL
13 | CC(C)=CCc1c(-c2ccc(O)cc2O)oc2cc3c(c(O)c2c1=O)CC(C(C)(C)O)O3 (centres undefined) | 2.2 µg/mL
14 | O=c1cc(-c2ccc(O)cc2O)oc2cc(O)cc(O)c12 [NORARTOCARPETIN] | 6.1 µg/mL
15 | CC(C)=CCC1C(=O)c2c(O)cc3c(c2OC1c1ccc(O)cc1O)C=CC(C)(C)O3 (centres undefined) | 5.3 µg/mL
16 | C=C(C)C(O)Cc1c(O)cc(O)c2c(=O)c(CC=C(C)C)c(-c3ccc(O)cc3O)oc12 (centres undefined) | 6.6 µg/mL
17 | CC(C)=CCc1c(O)ccc(C(=O)[C@H]2[C@@H](c3cc(O)cc4oc(-c5ccc(O)cc5O)cc34)C=C(C)C[C@@H]2c2ccc(O)cc2O)c1O | 12.8 µg/mL
18 | O=C1CC(c2ccc(O)cc2O)Oc2cc(O)cc(O)c21 (centres undefined) [STEPPOGENIN] | 12.1 µg/mL
19 | CC(C)=CCc1c(-c2ccc(O)cc2O)oc2cc(O)cc(O)c2c1=O [ALBANIN A] | 9.2 µg/mL
20 | CC[C@H](CC[C@@H](C)[C@H]1CC[C@H]2[C@@H]3CC=C4C[C@@H](O[C@@H]5O[C@H](CO)[C@@H](O)[C@H](O)[C@H]5O)CC[C@]4(C)[C@H]3CC[C@]12C)C(C)C [SITOGLUSIDE] | 77.4 µM
21 | CC(C)=CCc1c(O)ccc(C(=O)/C=C/c2ccc(O)cc2)c1O [ISOBAVACHALCONE] | 3.5 µg/mL

biological target: T1, Prostaglandin G/H synthase 2 (Homo sapiens, UniProt P35354); experiment: Inhibition of COX2 (unknown origin); details: not given
T1 sequence (P35354 whole entry): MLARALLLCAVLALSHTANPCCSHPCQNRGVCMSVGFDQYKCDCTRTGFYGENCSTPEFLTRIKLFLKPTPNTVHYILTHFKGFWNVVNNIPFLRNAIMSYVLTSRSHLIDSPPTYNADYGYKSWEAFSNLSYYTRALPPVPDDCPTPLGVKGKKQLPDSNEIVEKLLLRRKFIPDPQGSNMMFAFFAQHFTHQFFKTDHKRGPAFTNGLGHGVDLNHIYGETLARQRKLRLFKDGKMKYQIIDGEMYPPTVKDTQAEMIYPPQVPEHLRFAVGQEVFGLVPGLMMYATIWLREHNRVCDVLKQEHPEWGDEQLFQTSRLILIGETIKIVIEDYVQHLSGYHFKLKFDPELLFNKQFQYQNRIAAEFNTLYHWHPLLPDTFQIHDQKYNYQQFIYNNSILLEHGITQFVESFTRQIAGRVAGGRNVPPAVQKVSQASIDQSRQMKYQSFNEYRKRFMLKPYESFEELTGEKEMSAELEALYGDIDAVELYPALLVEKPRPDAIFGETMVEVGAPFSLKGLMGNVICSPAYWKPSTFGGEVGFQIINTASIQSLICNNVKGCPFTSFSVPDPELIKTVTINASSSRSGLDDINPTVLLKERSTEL

Row | Structure (SMILES) | IC50 [µM]
22 | C=C(C)[C@@H]1CC[C@]2(C)CC[C@]3(C)[C@H](CCC4[C@@]5(C)[C@H](O)C[C@H](OC(C)=O)C(C)(C)[C@@H]5CC[C@]43C)[C@@H]12 (some centres undefined) | 540
23 | O=C(O[C@@H]1[C@@H](c2c(O)cc(O)c3c2O[C@H](c2cc(O)c(O)c(O)c2)[C@H](OC(=O)c2cc(O)c(O)c(O)c2)C3)c2c(O)cc(O)c([C@H]3c4c(O)cc(O)cc4O[C@H](c4cc(O)c(O)c(O)c4)[C@@H]3OC(=O)c3cc(O)c(O)c(O)c3)c2O[C@@H]1c1cc(O)c(O)c(O)c1)c1cc(O)c(O)c(O)c1 | 4.5
24 | CC(C)[C@@H]1CC[C@]2(C)[C@@H]3C(C=C4[C@@H]5CC(C)(C)CC[C@]5(C)CC[C@]42C)OC(=O)CC[C@]31C (some centres undefined) | 650
25 | CC(C)[C@@H]1CC[C@]2(C)[C@@H]3C(C=C4[C@@H]5CC(C)(C)C(=O)C[C@]5(C)CC[C@]42C)OC(=O)CC(O)[C@]31C (some centres undefined) | 460

test system: RAW264.7; experiment: Antiinflammatory activity in mouse RAW264.7 cells assessed as inhibition of LPS-induced nitric oxide production after 24 hrs by Griess reagent based assay; format: functional, cell-based; details: RAW264.7, 24 h

Row | Structure (SMILES) | IC50 [µg/mL]
26 | COc1c(-c2ccc(O)c(O)c2)oc2cc(O)cc(O)c2c1=O [3-O-METHYLQUERCETIN] | 3.5 (≈ 11.1 µM)
27 | CC1(C)C=Cc2c(cc(O)cc2-c2cc3ccc(O)cc3o2)O1 | 18.5 (≈ 60 µM)
28 | O=C(/C=C/c1ccc(O)cc1)c1ccc(O)cc1O [ISOLIQUIRITIGENIN] | 3.4 (≈ 13.3 µM)
29 | COc1cc(O)cc(-c2cc3ccc(O)cc3o2)c1C/C=C(\C)CCC=C(C)C | 5.3 (≈ 13.5 µM)
30 | C=C(C)[C@H](O)CC/C(C)=C/Cc1c(O)cc2oc(-c3ccc(O)cc3)cc(=O)c2c1O | 3.5 (≈ 8.28 µM)
31 | COc1cc(O)cc(-c2cc3cc(OC)c(O)cc3o2)c1 | 7.5 (≈ 26.2 µM)
32 | Oc1ccc(/C=C/c2cc(O)cc(O)c2)cc1 [RESVERATROL] | 24.1 (≈ 106 µM)
33 | CC1=CCc2ccc3cc(-c4cc(O)cc(O)c4)oc3c2OC1 | 19.8 (≈ 64.2 µM)
34 | COc1cc(O)cc(-c2cc3cc(O)c(OC)cc3o2)c1 | 7.9 (≈ 27.6 µM)
35 | O=C(/C=C/c1ccc(O)cc1O)c1ccc(O)cc1O | 10.2 (≈ 37.5 µM)
36 | CC(C)=CCc1c(O)ccc(C(=O)/C=C/c2ccc(O)c([C@H]3C=C(C)CC(c4ccc(O)cc4O)[C@H]3C(=O)c3ccc(O)cc3O)c2O)c1O (some centres undefined) | 8.5 (≈ 12.5 µM)

biological target: T2, Prostaglandin G/H synthase 2 (Homo sapiens) (UniProt P35354); experiment: Inhibition of human COX2 at 10 uM using arachidonic acid as substrate measured for 300 secs intervals from 3 to 10 secs in presence of hematin by fluorescence assay relative to control; details: not given
T2 sequence (whole entry): T1 sequence (P35354 whole entry)

Row | Structure (SMILES) | inhibition [%]
37 | COc1ccc(CC2COc3cc(O)cc(O)c3C2=O)cc1 (centres undefined) | 20.9
38 | COc1cc(OC)c(C(=O)CCc2ccc(O)cc2)c(OC)c1 | 54.4
39 | O=C1c2c(O)cc(O)cc2OCC1Cc1ccc(O)cc1 (centres undefined) | 13.3
40 | COc1cc(OC(C)=O)c2c(c1)O[C@H](OC(C)=O)[C@@]1(Cc3cc4c(cc31)COC4)C2=O | 20.9
41 | COc1ccc(CC2(O)COc3cc(O)cc(O)c3C2=O)cc1 (centres undefined) | 71.4
42 | COc1cc(O)cc2c1C(=O)C(Cc1ccc(O)cc1)CO2 (centres undefined) | 73.8
43 | COc1cc(O)c2c(c1)OCC1(Cc3c1cc(OC)c(OC)c3O)C2=O (centres undefined) | 101
44 | COc1cc(OC)c(C(=O)/C=C/c2ccc(O)cc2)c(OC)c1 | 62.2
45 | COc1cc(OC(C)=O)c2c(c1)O[C@H](OC(C)=O)[C@]1(Cc3cc4c(cc31)COC4)C2=O | 89

biological target: T3, Prostaglandin G/H synthase 2 (Ovis aries, UniProt P79208); experiment: Inhibition of recombinant ovine COX2 using arachidonic acid as substrate preincubated for 15 mins followed by arachidonic acid addition measured after 2 mins by ELISA; details: not given
T3 sequence (P79208 whole entry): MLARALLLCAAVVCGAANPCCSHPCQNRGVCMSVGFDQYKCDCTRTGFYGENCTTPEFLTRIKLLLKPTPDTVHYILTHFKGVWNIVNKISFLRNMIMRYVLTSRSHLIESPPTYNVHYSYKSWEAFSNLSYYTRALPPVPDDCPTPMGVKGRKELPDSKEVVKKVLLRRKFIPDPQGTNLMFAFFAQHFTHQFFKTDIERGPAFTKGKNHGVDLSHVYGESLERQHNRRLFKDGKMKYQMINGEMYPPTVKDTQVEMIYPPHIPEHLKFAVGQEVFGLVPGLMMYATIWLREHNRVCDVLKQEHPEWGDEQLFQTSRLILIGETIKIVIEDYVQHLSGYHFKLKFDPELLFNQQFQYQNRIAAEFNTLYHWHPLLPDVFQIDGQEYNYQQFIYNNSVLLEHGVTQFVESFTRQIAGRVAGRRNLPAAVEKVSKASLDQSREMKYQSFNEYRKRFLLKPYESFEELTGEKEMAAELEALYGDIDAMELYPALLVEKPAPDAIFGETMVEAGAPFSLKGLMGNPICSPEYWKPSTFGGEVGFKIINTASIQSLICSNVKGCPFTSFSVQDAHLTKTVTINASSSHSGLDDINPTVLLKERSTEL

Row | Structure (SMILES) | IC50 [µM]
46 | COc1cc(O[C@@H]2O[C@H](CO)[C@@H](O)[C@H](O)[C@H]2O[C@@H]2OC[C@](O)(COC(=O)c3ccc(O)c(O)c3)[C@H]2O)ccc1O | 29.2
47 | C[C@@H]1O[C@@H](O[C@@H]2[C@@H](O)[C@H](OCCc3ccc(O)c(O)c3)O[C@H](CO)[C@H]2OC(=O)/C=C/c2ccc(O)c(O)c2)[C@H](O)[C@H](O)[C@H]1O [ACETOSIDE] | 11.3
48 | O=C(OC[C@@]1(O)CO[C@@H](O[C@H]2[C@H](Oc3ccc(O)c(O)c3)O[C@H](CO)[C@@H](O)[C@@H]2O)[C@@H]1O)c1ccc(O)c(O)c1 | 24.7
49 | C[C@@H]1O[C@@H](O[C@@H]2[C@@H](O)[C@H](OCCc3ccc(O)cc3)O[C@H](CO)[C@H]2OC(=O)/C=C/c2ccc(O)c(O)c2)[C@H](O)[C@H](O[C@@H]2OC[C@](O)(CO)[C@H]2O)[C@H]1O | 36
50 | C[C@@H]1O[C@@H](O[C@@H]2[C@@H](O[C@@H]3OC[C@](O)(CO)[C@H]3O)[C@H](OCCc3ccc(O)c(O)c3)O[C@H](CO)[C@H]2OC(=O)/C=C/c2ccc(O)c(O)c2)[C@H](O)[C@H](O)[C@H]1O | 18.2
51 | CC(=O)OC[C@H]1O[C@@H](OCCc2ccc(O)c(O)c2)[C@H](O)[C@@H](O[C@@H]2O[C@@H](C)[C@H](O)[C@@H](O[C@@H]3OC[C@](O)(CO)[C@H]3O)[C@H]2O)[C@@H]1OC(=O)/C=C/c1ccc(O)c(O)c1 | 19.6
52 | CC(=O)OC[C@H]1O[C@@H](OCCc2ccc(O)c(O)c2)[C@H](O[C@@H]2OC[C@](O)(CO)[C@H]2O)[C@@H](O[C@@H]2O[C@@H](C)[C@H](O)[C@@H](O)[C@H]2O)[C@@H]1OC(=O)/C=C/c1ccc(O)c(O)c1 | 16
53 | CC(=O)OC[C@H]1O[C@@H](OCCc2ccc(O)c(O)c2)[C@H](O)[C@@H](O[C@@H]2O[C@@H](C)[C@H](O)[C@@H](O)[C@H]2O)[C@@H]1OC(=O)/C=C/c1ccc(O)c(O)c1 | 9.4
54 | C[C@@H]1O[C@@H](O[C@@H]2[C@@H](O)[C@H](OCCc3ccc(O)c(O)c3)O[C@H](CO)[C@H]2OC(=O)/C=C/c2ccc(O)c(O)c2)[C@H](O)[C@H](O[C@@H]2OC[C@](O)(CO)[C@H]2O)[C@H]1O | 21.5
